From patent US9890133B2 (priority 2011, dated 2018)
Converted amounts (≈) assume the structure as drawn. Like-named read-outs stand apart in the source and are kept apart here.

Key:
[1] = tested on: Rhino 15; assay: Multicycle CPE reduction assay, Rhino 15; assay type: cell-based; conditions: incubation at 37° C. in HeLa cells
Protocol: (§1) The test compounds were evaluated for anti-picornavirus activity by a multicycle cytopathic effect (CPE) reduction assay. The antiviral activity was initially determined using an MTS [3-(4,5-dimethylthiazol-2-yl)-5-(3-carboxymethoxyphenyl)-2-(4-sulfophenyl-2H-tetrazolium]-based CPE reduction assay.
(§2) In this regard, cells grown to confluence in 96-well plates were infected with 100 50% cell culture infective doses (CCID50) of virus. After an adsorption period of 2 hrs at 37° C., virus was removed and serial dilutions of the compounds were added. […] After removal of the medium, 90 μl of a culture medium and 10 μl of MTS-phenazine methosulfate (Promega, Leiden, The Netherlands) were added to each well. After an incubation period of 2 hrs at 37° C., the optical density (OD) of each well was read at 498 nm in a microplate reader.
(§3) CPE values for evaluating antiviral activity were calculated using the following Mathematic Formula 3: […]
(§4) The 50% effective concentration (EC50) and the 50% cytotoxic concentration (CC50) were defined as the concentrations of compound that offered 50% protection against virus-induced CPE and that killed cells by 50%, respectively, and were calculated using logarithmic interpolation.

[2] = tested on: Echo 9; assay: Multicycle CPE reduction assay, Echo 9; assay type: cell-based
Protocol: as §1, §2, §3, §4

[3] = tested on: Rhino 41; assay: Multicycle CPE reduction assay, Rhino 41; assay type: cell-based; conditions: incubation at 37° C. in HeLa cells
Protocol: as §1, §2, §3, §4

[4] = tested on: Entero 71; assay: Multicycle CPE reduction assay, Entero 71; assay type: cell-based; conditions: incubation at 37° C. in RD cells
Protocol: as §1, §2, §3, §4

[5] = tested on: Rhino 39; assay: Multicycle CPE reduction assay, Rhino 39; assay type: cell-based; conditions: incubation at 37° C. in HeLa cells
Protocol: as §1, §2, §3, §4

[6] = tested on: Polio 1; assay: organism not typed; assay type: cell-based; conditions: BGM, read-out: Polio 1 EC50
[7] = tested on: Rhino 45; assay: Multicycle CPE reduction assay, Rhino 45; assay type: cell-based; conditions: incubation at 37° C. in HeLa cells
Protocol: as §1, §2, §3, §4

[8] = tested on: Rhino 72; assay: Multicycle CPE reduction assay, Rhino 72; assay type: cell-based; conditions: incubation at 37° C. in HeLa cells
Protocol: as §1, §2, §3, §4

[9] = tested on: Rhino 70; assay: Multicycle CPE reduction assay, Rhino 70; assay type: cell-based
Protocol: as §1, §2, §3, §4

[10] = tested on: Rhino 89; assay: Multicycle CPE reduction assay, Rhino 89; assay type: cell-based; conditions: HeLa, read-out: Rhino 89 EC50
Protocol: as §1, §2, §3, §4

[11] = in vitro; conditions: human
[12] = tested on: Rhino 29; assay: Multicycle CPE reduction assay, Rhino 29; assay type: cell-based; conditions: incubation at 37° C. in HeLa cells
Protocol: as §1, §2, §3, §4

[13] = tested on: Rhino 9; assay: Multicycle CPE reduction assay, Rhino 9; assay type: cell-based; conditions: incubation at 37° C. in HeLa cells
Protocol: as §1, §2, §3, §4

[14] = tested on: Rhino 86; assay: Multicycle CPE reduction assay, Rhino 86; assay type: cell-based; conditions: incubation at 37° C. in HeLa cells
Protocol: as §1, §2, §3, §4

[15] = tested on: Rhino 42; assay: Multicycle CPE reduction assay, Rhino 42; assay type: cell-based; conditions: incubation at 37° C. in HeLa cells
Protocol: as §1, §2, §3, §4

[16] = tested on: Rhino 2; assay: Multicycle CPE reduction assay, Rhino 2; assay type: cell-based; conditions: incubation at 37° C. in HeLa cells
Protocol: as §1, §2, §3, §4

[17] = tested on: Rhino 85; assay: Multicycle CPE reduction assay, Rhino 85; assay type: cell-based; conditions: incubation at 37° C. in HeLa cells
Protocol: as §1, §2, §3, §4

[18] = tested on: Rhino 63; assay: Multicycle CPE reduction assay, Rhino 63; assay type: cell-based; conditions: incubation at 37° C. in HeLa cells
Protocol: as §1, §2, §3, §4

[19] = tested on: Echo 11; assay: Multicycle CPE reduction assay, Echo 11; assay type: cell-based; conditions: BGM, read-out: Echo 11 EC50
Protocol: as §1, §2, §3, §4

[20] = tested on: Coxsackie A21; assay: Multicycle CPE reduction assay, Coxsackie A21; assay type: cell-based; conditions: MRC5; incubation at 37° C. in MRC-5 cells
Protocol: as §1, §2, §3, §4

[21] = tested on: Polio 2; assay: organism not typed; assay type: cell-based; conditions: BGM, read-out: Polio 2 EC50
[22] = tested on: Coxsackie A16; assay: Multicycle CPE reduction assay, Coxsackie A16; assay type: cell-based; conditions: MRC5; incubation at 37° C. in MRC-5 cells
Protocol: as §1, §2, §3, §4

[23] = Cytotoxicity (CC50), MTS-based assay (Experimental Example 2); assay type: cell-based
Protocol: as §1, §2
CPE values for evaluating cytotoxicity were calculated using the following Mathematic Formula 4: […]
as §4

[24] = tested on: Polio 3; assay: organism not typed; assay type: cell-based; conditions: BGM, read-out: Polio 3 EC50
[25] = tested on: Poliovirus 3; assay: microbe, parasite or virus in culture; assay type: cell-based; conditions: Enterovirus C
[26] = tested on: Coxsackie A9; assay: Multicycle CPE reduction assay, Coxsackie A9; assay type: cell-based; conditions: incubation at 37° C. in BGM cells
Protocol: as §1, §2, §3, §4

[27] = tested on: Rhino 14; assay: Multicycle CPE reduction assay, Rhino 14; assay type: cell-based; conditions: incubation at 37° C. in HeLa cells
Protocol: as §1, §2, §3, §4

[28] = tested on: Coxsackie A24(HG); assay: CPE inhibition assay, Coxsackie A24(HG); assay type: cell-based; conditions: MRC5, 48 h; MRC-5, 37° C., 2 days, FDA
[29] = tested on: Coxsackie A24(DN); assay: CPE inhibition assay, Coxsackie A24(DN); assay type: cell-based; conditions: MRC5, 48 h; MRC-5, 37° C., 2 days, FDA
[30] = tested on: Rhino 59; assay: Multicycle CPE reduction assay, Rhino 59; assay type: cell-based; conditions: incubation at 37° C. in HeLa cells
Protocol: as §1, §2, §3, §4

[31] = tested on: mock-infected cells (HeLa, MRC-5, RD); conditions: human
[32] = HeLa, read-out: Rhino 70 EC50, incubation at 37° C. in HeLa cells

| SMILES | EC50 [1] | melting point | EC50 [3] | EC50 [4] | EC50 [5] | EC50 [6] | EC50 ([7]; HeLa) | EC50 [10] | CC50 [11] | CC50 ([11]; Picorana CC50) | EC50 [12] | EC50 [13] | EC50 [16] | EC50 [17] | EC50 [18] | EC50 [19] | EC50 [21] | CC50 at 3 days [23] | EC50 [24] | EC50 ([25]; read-out: Poliovirus3 EC50) | further results |
| --- | --- | --- | --- | --- | --- | --- | --- | --- | --- | --- | --- | --- | --- | --- | --- | --- | --- | --- | --- | --- | --- |
| CC(C)c1ccc2c(c1)OC1(O)c3ccccc3C(=O)C21O (centres unmarked) [Example 10, 4b,9b-Dihydroxy-7-isopropyl-4bH-benzo[d]indeno[1,2-b]furan-10(9bH)-one] | > 50000 nM | 195 to 198 °C | 8800 ± 120 nM | 12 ± 2 nM | > 50000 nM | 750 ± 370 nM | 3400 ± 1500 nM | > 50000 nM | 18.4 µg/mL (≈ 62.2 µM) | 14.2 µg/mL (≈ 47.9 µM) | > 50000 nM | > 50000 nM | > 50000 nM | > 50000 nM | > 50000 nM | 21 nM | 360 ± 150 nM | > 100000 nM | 1000 ± 570 nM |  | EC50 ([2]; MRC5, incubation at 37° C. in MRC-5 cells, read-out: Echo 9 EC50): 25 ± 5.7 nM; EC50 [8]: 5300 ± 1200 nM; EC50 [9, 32]: 2400 ± 360 nM; EC50 [14]: 8000 ± 2900 nM; EC50 [15]: > 50000 nM; EC50 [20]: 1100 ± 580 nM; EC50 [22]: 90 ± 35 nM |
| CC(C)c1ccc2c(c1)O[C@@]1(O)c3cccc(N)c3C(=O)[C@@]21O [Example 46, 1-Amino-4b,9b-dihydroxy-7-isopropyl-4bH-benzo[d]indeno[1,2-b]furan-10(9bH)-one] | 2800 ± 260 nM | 180 to 182 °C | 470 ± 36 nM | 3.1 nM | 3000 ± 170 nM | 68 nM | ≤ 78 nM | 340 ± 860 nM | 18.3 µg/mL (≈ 58.9 µM) | 9.42 µg/mL (≈ 30.3 µM) | 4600 ± 720 nM | 3500 ± 150 nM | > 10000 nM | 6200 ± 700 nM | 8500 ± 130 nM | 2.3 ± 0.88 nM | 18 ± 1.9 nM | > 100000 nM | 43 ± 17 nM | < 0.01 µg/mL | EC50 ([2]; MRC5, read-out: Echo 9 EC50): 3.5 nM; EC50 ([7]; listed as Ex. 46): < 78 nM; EC50 ([9]; HeLa, incubation at 37° C. in HeLa cells, read-out: Rhino 70 EC50): ≤ 78 nM; EC50 ([9]; read-out: Rhino 70 EC50, incubation at 37° C. in HeLa cells, listed as Ex. 46): > 78 nM; EC50 [26]: 1.7 nM; EC50 [27]: < 10 nM |
| CC(=O)O[C@@]12Oc3cc(C(C)C)ccc3[C@]1(OC(C)=O)C(=O)c1c(N)cccc12 [Example 47, 1-Amino-7-isopropyl-10-oxo-9b,10-dihydro-4bH-benzo[d]indeno[1,2-b]furane-4b,9b-diyl diacetate] |  | 220 to 223 °C |  |  |  |  |  |  | 15.4 µg/mL |  |  |  |  |  |  |  |  |  |  | < 0.1 µg/mL | EC50 [28]: < 0.01 µg/mL; EC50 [29]: 0.055 µg/mL; EC50 ([25]; HeLa37, 48 h, read-out: Poliovirus 3 EC50): < 0.1 µg/mL |
| CC(=O)NC12C(=O)c3ccccc3C1(O)Oc1cc(C(C)C)ccc12 (centres unmarked) [Example 66, N-(4b-Hydroxy-7-isopropyl-10-oxo-4b,10-dihydro-5-oxa-indeno[2,1-a]inden-9b-yl)-acetamide] | 4600 ± 1300 nM |  | 600 ± 26 nM | 25 ± 0.92 nM | 1800 ± 370 nM | 690 ± 170 nM | 1700 ± 460 nM | 630 ± 23 nM |  | 44.7 µg/mL (≈ 133 µM) | 6400 ± 830 nM | 2300 ± 700 nM | 5900 ± 250 nM | > 5800 nM | > 10000 nM | 7.2 ± 0.18 nM | 230 ± 20 nM | > 100000 nM | 580 ± 6.9 nM |  | EC50 [8]: 130 ± 69 nM; EC50 [9, 32]: 57 ± 17 nM; EC50 [30]: > 10000 nM; EC50 [14]: 70 ± 6.6 nM; EC50 [15]: 150 ± 23 nM; EC50 [26]: 8.3 ± 0.43 nM |
| CC(C)c1ccc2c(c1)OC1(O)c3cccc(N)c3C(=O)C21NC(=O)c1[nH]nc2ccccc12 (centres unmarked) [Example 288, N-(1-Amino-4b-hydroxy-7-isopropyl-10-oxo-9b,10-dihydro-4bH-benzo[d]indeno[1,2-b]furan-9b-yl)-2H-indazole-3-carboxamide] |  |  |  |  |  |  |  |  |  |  |  |  |  |  |  |  |  |  |  | 0.029 µg/mL (≈ 0.0638 µM) | Picorana CC50 [31]: >10 µg/mL |
